≈ marks a conversion by molar mass, not a printed value.
Tested on: Cand.alb. M
Experiment: Candida albicans pseudomycelium/mycelium phase test, MIC (column M)
Type: cell-based
Details: in vitro, read-out: Minimale Hemmkonzentration (MHK) Cand.alb. M
Text: (§1) Die Wirkung gegen Dermatophyten, Bakterien und Protozonen kann nach Methoden, wie sie beispielsweise in P. Klein, Bakteriologische Grundlagen der chemotherapeutischen Laboratoriumspraxis, Springer-Verlag Berlin, 1957, beschrieben wird, aufgezeigt werden. Die überraschende Wirkung gegenüber Hefen wurde im Pseudomyzel- und Myzelphasentest mit Candida albicans nachgewiesen (vgl. DE-OS 30 10 093). Es wurde geprüft, welche minimalen Hemmkonzentrationen (MHK-Werte) im Agardilutionstest erreicht werden. In der Tabelle 1 sind die Ergebnisse zusammengefaßt.

MIC	SMILES
0.0156 µg/mL (≈ 0.0368 µM)	Clc1ccc(C2OC2(Cn2ccnc2)c2ccc(Br)cc2)c(Cl)c1 (single isomer, unassigned) [Beispiel 7]
< 0.0039 µg/mL	Clc1ccc(C2OC2(Cn2ccnc2)c2ccccc2)c(Cl)c1 (single isomer, unassigned) [Beispiel 6]

Tested on: Gurkenmehltau (Erysiphe cichoracearum)
Experiment: Versuch 3: activity against cucumber powdery mildew on cucumber seedlings
Type: in vivo
Details: 0,025 %ige Spritzbrühe; sprayed about 20 h after inoculation; assessed after 21 days; value given as 'beispielsweise'
Text: Blätter von in Töpfen gewachsenen Gurkenkeimlingen der Sorte "Chinesische Schlange" wurden im Zweiblattstadium mit einer Sporensuspension des Gurkenmehltaus (Erysiphe cichoracearum) besprüht. Nach etwa 20 Stunden wurden die Versuchspflanzen mit wäßriger Spritzbrühe, die 80 % Wirkstoff und 20 % Emulgiermittel in der Trockensubstanz enthielt, bis zur Tropfnässe besprüht. Nach dem Antrocknen des J Spritzbelages wurden sie anschließend im Gewächshaus bei Temperaturen zwischen 20 und 22^00 und 70 bis 80 % relativer Luftfeuchtigkeit aufgestellt. Zur Beurteilung der Wirksamkeit der neuen Stoffe wurde das Ausmaß der Pilzentwicklung nach 21 Tagen beurteilt.

SMILES	fungizide Wirkung gegen Gurkenmehltau
Clc1ccc(C2OC2(Cn2cncn2)c2ccc(Br)cc2)c(Cl)c1 (single isomer, unassigned) [Beispiel 10]	100%
CC(C)(C)C1(Cn2cncn2)OC1c1ccccc1 (single isomer, unassigned) [Beispiel 15]	100%
Clc1ccc(C2OC2(Cn2ccnc2)c2ccccc2)c(Cl)c1 (single isomer, unassigned) [Beispiel 6]	100%
Clc1ccc(C2OC2(Cn2cncn2)c2ccc(Br)cc2)cc1 (single isomer, unassigned) [Beispiel 44]	100%
CC(C)(C)C1(Cn2ccnc2)OC1c1ccc(Cl)cc1 (single isomer, unassigned) [Beispiel 14]	100%
Fc1ccc(C2OC2(Cn2cncn2)c2ccc(Cl)cc2)cc1 (single isomer, unassigned) [Beispiel 45]	100%

Tested on: Weizenbraunrost (Puccinia recondita)
Experiment: Versuch 2: activity against wheat brown rust on wheat seedlings
Type: in vivo
Details: 0,025; 0,006; 0,0015 %ige Spritzbrühen; sprayed 24 h after inoculation; assessed after 8 days; value given as 'beispielsweise'
Description: Blätter von in Töpfen gewachsenen Weizensämlingen der Sorte "Jubilar" wurden mit Sporen des Braunrostes (Puccinia recondita) bestäubt. Danach wurden die Töpfe für 24 Stunden bei 20 bis 22°C in eine Kammer mit hoher Luftfeuchtigkeit (90 bis 95 %) gestellt. Während dieser Zeit keimten die Sporen aus und die Keimschläuche drangen in das Blattgewebe ein. Die infizierten Pflanzen wurden anschließend mit wäßrigen Spritzbrühen, die 80 % Wirkstoff und 20 % Emulgiermittel in der Trockensubstanz enthielten, tropfnaß gespritzt. Nach dem Antrocknen des Spritzbelages wurden die Versuchspflanzen im Gewächshaus bei Temperaturen zwischen 20 und 22°C und 65 bis 70 % relativer Luftfeuchte aufgestellt. Nach 8 Tagen wurde das Ausmaß der Rostpilzentwicklung auf den Blättern ermittelt.

SMILES	fungizide Wirkung gegen Weizenbraunrost
Clc1ccc(C2OC2(Cn2cncn2)c2ccc(Br)cc2)c(Cl)c1 (single isomer, unassigned) [Beispiel 10]	100%
Clc1ccc(C2OC2(Cn2ccnc2)c2ccccc2)c(Cl)c1 (single isomer, unassigned) [Beispiel 6]	100%
Clc1ccc(C2OC2(Cn2cncn2)c2ccc(Br)cc2)cc1 (single isomer, unassigned) [Beispiel 44]	100%

Tested on: Trametes versicolor
Experiment: Versuch 6: fungal growth on malt extract agar containing active ingredient
Type: cell-based
Parameters: key: 0 = kein Pilzwachstum (Pilzmyzel abgetötet); 1 = geringes Pilzwachstum (bis 1/3 der Agaroberfläche bewachsen); 3 = mittleres Pilzwachstum (bis 2/3 der Agaroberfläche bewachsen); 5 = ungehemmtes Pilzwachstum (gesamte Agaroberfläche bewachsen)
Details: 40 ppm in 5 % malt extract agar; 5 days at 25 °C; growth score
Text: (§2) Die Wirkstoffe werden in Aceton gelöst, in Mengen von 40 ppm einem verflüssigten 5 %igen Malzextraktagar zugesetzt. Der Agar wird in Petrischalen ausgegossen und nach dem Erstarren werden die fungizidhaltigen Nähragarplatten zentral mit Myzel der holzzerstörenden Pilze Coniophora puteana und Trametes versicolor, des Moderfäule und Stockflecken verursachenden Pilzes Chaetomium globosum sowie mit Sporen des grünen Holzschimmels Trichoderma viride beimpft.
(§3) Nach fünftägiger Bebrütung der Schalen bei 25 °C wird die Entwicklung der Pilzkolonien auf dem Nährboden im Vergleich mit der Kontrolle (ohne Wirkstoff-Zusatz) beurteilt: • 0 = kein Pilzwachstum (Pilzmyzel abgetötet) • 1 = geringes Pilzwachstum (bis 1/3 der Agaroberfläche bewachsen) • 3 = mittleres Pilzwachstum (bis 2/3 der Agaroberfläche bewachsen) • 5 = ungehemmtes Pilzwachstum (gesamte Agaroberfläche bewachsen)

SMILES	Wirksamkeit gegen Trametes versicolor
Clc1ccc(C2OC2(Cn2cncn2)c2ccc(Br)cc2)c(Cl)c1 (single isomer, unassigned) [Beispiel 10]	0
CC(C)(C)C1(Cn2cncn2)OC1c1ccccc1 (single isomer, unassigned) [Beispiel 15]	0
Clc1ccc(C2OC2(Cn2cncn2)c2ccc(Br)cc2)cc1 (single isomer, unassigned) [Beispiel 44]	0
CC(C)(C)C1(Cn2ccnc2)OC1c1ccc(Cl)cc1 (single isomer, unassigned) [Beispiel 14]	0
Fc1ccc(C2OC2(Cn2cncn2)c2ccc(Cl)cc2)cc1 (single isomer, unassigned) [Beispiel 45]	0

Tested on: Coniophora puteana
Experiment: as above
Type: cell-based
Parameters: key: 0 = kein Pilzwachstum (Pilzmyzel abgetötet); 1 = geringes Pilzwachstum (bis 1/3 der Agaroberfläche bewachsen); 3 = mittleres Pilzwachstum (bis 2/3 der Agaroberfläche bewachsen); 5 = ungehemmtes Pilzwachstum (gesamte Agaroberfläche bewachsen)
Details: 40 ppm in 5 % malt extract agar; 5 days at 25 °C; growth score
Text: as §2, §3

SMILES	Wirksamkeit gegen Coniophora puteana
Clc1ccc(C2OC2(Cn2cncn2)c2ccc(Br)cc2)c(Cl)c1 (single isomer, unassigned) [Beispiel 10]	0
CC(C)(C)C1(Cn2cncn2)OC1c1ccccc1 (single isomer, unassigned) [Beispiel 15]	0
Clc1ccc(C2OC2(Cn2cncn2)c2ccc(Br)cc2)cc1 (single isomer, unassigned) [Beispiel 44]	0
CC(C)(C)C1(Cn2ccnc2)OC1c1ccc(Cl)cc1 (single isomer, unassigned) [Beispiel 14]	0
Fc1ccc(C2OC2(Cn2cncn2)c2ccc(Cl)cc2)cc1 (single isomer, unassigned) [Beispiel 45]	0

Tested on: Trichoderma viride
Experiment: as above
Type: cell-based
Parameters: key: 0 = kein Pilzwachstum (Pilzmyzel abgetötet); 1 = geringes Pilzwachstum (bis 1/3 der Agaroberfläche bewachsen); 3 = mittleres Pilzwachstum (bis 2/3 der Agaroberfläche bewachsen); 5 = ungehemmtes Pilzwachstum (gesamte Agaroberfläche bewachsen)
Details: 40 ppm in 5 % malt extract agar; 5 days at 25 °C; growth score
Text: as §2, §3

SMILES	Wirksamkeit gegen Trichoderma viride
Clc1ccc(C2OC2(Cn2cncn2)c2ccc(Br)cc2)c(Cl)c1 (single isomer, unassigned) [Beispiel 10]	0
CC(C)(C)C1(Cn2cncn2)OC1c1ccccc1 (single isomer, unassigned) [Beispiel 15]	1
Clc1ccc(C2OC2(Cn2cncn2)c2ccc(Br)cc2)cc1 (single isomer, unassigned) [Beispiel 44]	0
CC(C)(C)C1(Cn2ccnc2)OC1c1ccc(Cl)cc1 (single isomer, unassigned) [Beispiel 14]	0
Fc1ccc(C2OC2(Cn2cncn2)c2ccc(Cl)cc2)cc1 (single isomer, unassigned) [Beispiel 45]	0

Tested on: Chaetomium globosum
Experiment: as above
Type: cell-based
Parameters: key: 0 = kein Pilzwachstum (Pilzmyzel abgetötet); 1 = geringes Pilzwachstum (bis 1/3 der Agaroberfläche bewachsen); 3 = mittleres Pilzwachstum (bis 2/3 der Agaroberfläche bewachsen); 5 = ungehemmtes Pilzwachstum (gesamte Agaroberfläche bewachsen)
Details: 40 ppm in 5 % malt extract agar; 5 days at 25 °C; growth score
Text: as §2, §3

SMILES	Wirksamkeit gegen Chaetomium globosum
Clc1ccc(C2OC2(Cn2cncn2)c2ccc(Br)cc2)c(Cl)c1 (single isomer, unassigned) [Beispiel 10]	0
CC(C)(C)C1(Cn2cncn2)OC1c1ccccc1 (single isomer, unassigned) [Beispiel 15]	3
Clc1ccc(C2OC2(Cn2cncn2)c2ccc(Br)cc2)cc1 (single isomer, unassigned) [Beispiel 44]	1
CC(C)(C)C1(Cn2ccnc2)OC1c1ccc(Cl)cc1 (single isomer, unassigned) [Beispiel 14]	0
Fc1ccc(C2OC2(Cn2cncn2)c2ccc(Cl)cc2)cc1 (single isomer, unassigned) [Beispiel 45]	1

Tested on: Trichom. vag.
Experiment: Minimal inhibitory concentration in vitro (protozoa)
Type: cell-based
Details: read-out: Minimale Hemmkonzentration (MHK) Trichom. vag.
Text: as §1

MIC	SMILES
> 16 µg/mL	Clc1ccc(C2OC2(Cn2ccnc2)c2ccc(Br)cc2)c(Cl)c1 (single isomer, unassigned) [Beispiel 7]
> 16 µg/mL	Clc1ccc(C2OC2(Cn2ccnc2)c2ccccc2)c(Cl)c1 (single isomer, unassigned) [Beispiel 6]

Tested on: Botrytis cinerea
Experiment: Versuch 4: activity against Botrytis cinerea on paprika seedlings
Type: in vivo
Details: 0,05 %ige Spritzbrühe; sprayed before inoculation; assessed after 5 days; value given as 'beispielsweise'
Text: Paprikasämlinge der Sorte "Neusiedler Ideal Elite" wurden, nachdem sich 4 bis 5 Blätter gut entwickelt hatten, mit wäßrigen Suspensionen, die 80 % Wirkstoff und 20 % Emulgiermittel in der Trockensubstanz enthielten, tropfnaß gespritzt. Nach dem Antrocknen des Spritzbelages wurden die Pflanzen mit einer Konidienaufschwemmung des Pilzes Botrytis cenerea besprüht und bei 22 bis 24 C in eine Kammer mit hoher Luftfeuchtigkeit gestellt. Nach 5 Tagen hatte sich die Krankheit auf den unbehandelten Kontrollpflanzen so stark entwickelt, daß die entstandenen Blattnekrosen den überwiegenden Teil der Blätter bedeckten.

SMILES	fungizide Wirkung gegen Botrytis cinerea an Paprika
Clc1ccc(C2OC2(Cn2cncn2)c2ccc(Br)cc2)c(Cl)c1 (single isomer, unassigned) [Beispiel 10]	97%
Clc1ccc(C2OC2(Cn2ccnc2)c2ccccc2)c(Cl)c1 (single isomer, unassigned) [Beispiel 6]	97%
Clc1ccc(C2OC2(Cn2cncn2)c2ccc(Br)cc2)cc1 (single isomer, unassigned) [Beispiel 44]	97%

Tested on: Aps.fum. 2
Experiment: Agar dilution test, minimal inhibitory concentration in vitro
Type: cell-based
Details: read-out: Minimale Hemmkonzentration (MHK) Aps.fum. 2
Text: as §1

MIC	SMILES
4 µg/mL (≈ 9.43 µM)	Clc1ccc(C2OC2(Cn2ccnc2)c2ccc(Br)cc2)c(Cl)c1 (single isomer, unassigned) [Beispiel 7]
0.0625 µg/mL (≈ 0.181 µM)	Clc1ccc(C2OC2(Cn2ccnc2)c2ccccc2)c(Cl)c1 (single isomer, unassigned) [Beispiel 6]

Tested on: Microsp. ferrug. 5
Experiment: as above
Type: cell-based
Details: read-out: Minimale Hemmkonzentration (MHK) Microsp. ferrug. 5
Text: as §1

MIC	SMILES
0.25 µg/mL (≈ 0.589 µM)	Clc1ccc(C2OC2(Cn2ccnc2)c2ccc(Br)cc2)c(Cl)c1 (single isomer, unassigned) [Beispiel 7]
0.0625 µg/mL (≈ 0.181 µM)	Clc1ccc(C2OC2(Cn2ccnc2)c2ccccc2)c(Cl)c1 (single isomer, unassigned) [Beispiel 6]

Tested on: Staph. aur. SG 511
Experiment: as above
Type: cell-based
Details: read-out: Minimale Hemmkonzentration (MHK) Staph. aur. SG 511
Text: as §1

MIC	SMILES
16 µg/mL (≈ 37.7 µM)	Clc1ccc(C2OC2(Cn2ccnc2)c2ccc(Br)cc2)c(Cl)c1 (single isomer, unassigned) [Beispiel 7]
16 µg/mL (≈ 46.3 µM)	Clc1ccc(C2OC2(Cn2ccnc2)c2ccccc2)c(Cl)c1 (single isomer, unassigned) [Beispiel 6]

Tested on: Strept. faec. 8043
Experiment: as above
Type: cell-based
Details: read-out: Minimale Hemmkonzentration (MHK) Strept. faec. 8043
Text: as §1

MIC	SMILES
16 µg/mL (≈ 37.7 µM)	Clc1ccc(C2OC2(Cn2ccnc2)c2ccc(Br)cc2)c(Cl)c1 (single isomer, unassigned) [Beispiel 7]
16 µg/mL (≈ 46.3 µM)	Clc1ccc(C2OC2(Cn2ccnc2)c2ccccc2)c(Cl)c1 (single isomer, unassigned) [Beispiel 6]

Tested on: Mucor pus. 6
Experiment: as above
Type: cell-based
Details: read-out: Minimale Hemmkonzentration (MHK) Mucor pus. 6
Text: as §1

MIC	SMILES
2 µg/mL (≈ 4.72 µM)	Clc1ccc(C2OC2(Cn2ccnc2)c2ccc(Br)cc2)c(Cl)c1 (single isomer, unassigned) [Beispiel 7]
4 µg/mL (≈ 11.6 µM)	Clc1ccc(C2OC2(Cn2ccnc2)c2ccccc2)c(Cl)c1 (single isomer, unassigned) [Beispiel 6]

Tested on: Abs. corym. 1
Experiment: as above
Type: cell-based
Details: read-out: Minimale Hemmkonzentration (MHK) Abs. corym. 1
Text: as §1

MIC	SMILES
1 µg/mL (≈ 2.36 µM)	Clc1ccc(C2OC2(Cn2ccnc2)c2ccc(Br)cc2)c(Cl)c1 (single isomer, unassigned) [Beispiel 7]
8 µg/mL (≈ 23.2 µM)	Clc1ccc(C2OC2(Cn2ccnc2)c2ccccc2)c(Cl)c1 (single isomer, unassigned) [Beispiel 6]

Tested on: Trichoph. ment. 21
Experiment: as above
Type: cell-based
Details: read-out: Minimale Hemmkonzentration (MHK) Trichoph. ment. 21
Text: as §1

MIC	SMILES
1 µg/mL (≈ 2.36 µM)	Clc1ccc(C2OC2(Cn2ccnc2)c2ccc(Br)cc2)c(Cl)c1 (single isomer, unassigned) [Beispiel 7]

Tested on: Epid. flocc. 157
Experiment: as above
Type: cell-based
Details: read-out: Minimale Hemmkonzentration (MHK) Epid. flocc. 157
Text: as §1

MIC	SMILES
1 µg/mL (≈ 2.36 µM)	Clc1ccc(C2OC2(Cn2ccnc2)c2ccc(Br)cc2)c(Cl)c1 (single isomer, unassigned) [Beispiel 7]

Tested on: E.coli muta-flor
Experiment: as above
Type: cell-based
Details: Escherichia coli, read-out: Minimale Hemmkonzentration (MHK) E.coli muta-flor
Text: as §1

MIC	SMILES
> 128 µg/mL	Clc1ccc(C2OC2(Cn2ccnc2)c2ccc(Br)cc2)c(Cl)c1 (single isomer, unassigned) [Beispiel 7]
> 128 µg/mL	Clc1ccc(C2OC2(Cn2ccnc2)c2ccccc2)c(Cl)c1 (single isomer, unassigned) [Beispiel 6]

Tested on: Cand.alb. H
Experiment: Candida albicans pseudomycelium/mycelium phase test, MIC
Type: cell-based
Details: in vitro, column H, read-out: Minimale Hemmkonzentration (MHK) Cand.alb. H
Text: as §1

MIC	SMILES
16 µg/mL (≈ 37.7 µM)	Clc1ccc(C2OC2(Cn2ccnc2)c2ccc(Br)cc2)c(Cl)c1 (single isomer, unassigned) [Beispiel 7]
32 µg/mL (≈ 92.7 µM)	Clc1ccc(C2OC2(Cn2ccnc2)c2ccccc2)c(Cl)c1 (single isomer, unassigned) [Beispiel 6]

Tested on: Weizenmehltau (Erysiphe graminis var. tritici)
Experiment: Versuch 1: activity against wheat powdery mildew on wheat seedlings
Type: in vivo
Details: 0,025; 0,006; 0,0015 %ige Spritzbrühen; sprayed 24 h before inoculation; assessed after 7 days; value given as 'beispielsweise'
Description: Blätter von in Töpfen gewachsenen Weizenkeimlingen der Sorte "Jubilar" wurden mit wäßriger Spritzbrühe, die 80 % (Gew.%) Wirkstoff und 20 % Emulgiermittel in der Trockensubstanz enthielt, besprüht und 24 Stunden nach dem Antrocknen des Spritzbelages mit Oidien (Sporen) des Weizenmehltaus (Erysiphe graminis var. tritici) bestäubt. Die Versuchspflanzen wurden anschließend im Gewächshaus bei Temperaturen zwischen 20 und 22 °C und 75 bis 80 % relativer Luftfeuchtigkeit aufgestellt. Nach 7 Tagen wurde das Ausmaß der Mehltauentwicklung ermittelt.

SMILES	fungizide Wirkung gegen Weizenmehltau
Clc1ccc(C2OC2(Cn2cncn2)c2ccc(Br)cc2)cc1 (single isomer, unassigned) [Beispiel 44]	100%

From patent publication EP0094564A2, “Azolyl-methyl oxiranes, their preparation and use as medicaments and plant protecting agents” (BASF Aktiengesellschaft, priority 1982, dated 1983)
